# In US20230295212A1 (ROME Therapeutics, Inc., priority 2022, published 2023):
# What was measured:
# [1] = test system: interferon-stimulated gene (ISG) response; assay: In vivo decitabine challenge model in C57BL/6 mice (ISG response); parameters: species or system mouse; settings: decitabine i.p. 5 mg/kg
# Procedure: Exemplary compounds were tested for ability to alter the interferon-stimulated gene (ISG) response in C57BL/6 mice treated with decitabine. Assay procedures and results are described below. Twenty 9-11 week old C57BL/6 mice were acclimated to the lab for at least 5 days. Compound 23 was prepared in a 0.5% methylcellulose solution for p.o. administration. Decitabine (Sigma-Aldrich) was dissolved in sterile PBS (pH 7.4) and dosed within 30 minutes of preparation of the solution. Doses of both the compound and decitabine were administered once a day, every day from Day 0 to Day 4. On Day 0, mice were split into five groups of five mice and given their first dose of decitabine (i.p., 5 mg/kg) and compound 23. Dosing groups were: Decitabine and compound 23 were administered daily from Day 0 to Day 4. All mice were euthanized 1 hour after the last dose administration on Day 4. Spleens, liver, and terminal colon were collected, along with plasma from each animal. The fold changes in interferon-stimulated gene (ISG) expression was calculated by first normalizing to GAPDH gene using the Delta CT method. The CT (gene of interest)—CT (reference gene) was calculated to generate a delta CT for all samples. The fold change was then calculated by taking the Log2(Delta CT(control)—Delta CT (experimental). The control in this example was the PBS control animal group. The Taqman duplex assay was used to determine levels of GAPDH v. IFIT2. Twenty 9-11 week old C57BL/6 mice were acclimated to the lab for at least 5 days. Compound 2 was prepared in 20% PEG400 in PBS (final pH 4.5) for p.o. administration. Decitabine (Sigma) was dissolved in sterile PBS (pH 7.4) and dosed within 30 minutes of preparation of the solution. Doses of both Compound 2 and decitabine were administered once a day. On Day 0, mice were split into five groups of five mice and given their first dose of decitabine and Compound 2. […] The fold changes in interferon-stimulated gene (ISG, specifically IRF7 and MX1) expression was calculated by first normalizing to GAPDH gene using the Delta CT method. […]
# [2] = test system: human PBMC; assay: Decitabine-stimulated human PBMC assay (IFN-β, cell viability); assay type: cell-based; settings: anti-CD3/anti-CD28, decitabine 10 μM, 5 days
# Procedure: EasySep buffer (32 mL, […] Technologies, cat. #20144) was used to dilute 8 mL of LRSC buffy coat (from fresh Leukopak) with gentle mixing. The diluted buffy coat (20 mL) was transferred into each of two SepMate 50 tubes, and the tubes were filled with 15 mL of Lyphoprep ([…], cat. #07851) density gradient. The SepMate tubes were then centrifuged at 1200G for 10 minutes at room temperature with the brake on. The top layer of supernatant was collected in SepMate tubes by quickly pouring it into a new 50 mL conical tube. The PBMCs were washed with EasySep buffer ×2 by centrifuging at 300G for 5 minutes. The cells were resuspended in 30 mL of EasySep and centrifuged at 100G for 5 minutes with the brake off, and the platelets were removed. The cells were then resuspended in 6 mL of 1×RBC lysis buffer (Invitrogen) and incubated at 37° C. for 5 minutes. 25 mL of EasySep buffer was then mixed into the tube and centrifuged at 300G for 5 minutes. The cells were resuspended in 10 mL of EasySep buffer and the cells were then counted with Cellometer (AO/PI). The PBMCs were resuspended in RPMI1640 (ThermoFisher)^+10% FBS (HyClone)^+μ/s at 3×10^6/mL. The PBMCs (100 μL, 300 k PBMCs) were then seeded in a 96-well flat bottom microplate (Corning) that had been precoated with 100 μL of anti-CD3 antibody (10 μg/mL in PBS, Biolegend) or PBS at 4° C., one day before the assay was commenced.
# To each well the following solutions were added 1) 100 μL of cells (final cell number per well is 3×10^5 cell/well); 2) 25 μL of anti-CD28 antibody at 6×(5 μg/mL final concentration, Biolegend); 3) 25 μL of decitabine at 6×(10 μM final concentration); and 4) Compound in DMSO was dispensed directly into each well with a d300e digital dispenser (Tecan). The final concentration of DMSO for each well was normalized to 0.3%. The plate was incubated at 37° C. without any agitation for 5 days. Samples were collected 120 hours after incubation to determine IFN-0 and IL-2 levels using a U-PLEX Human IFN-β Assay Sector (5PL) (MSD, cat. #K151VIK-2).
# After 5 days, the plate was spun down at 100×G for 5 minutes. Supernatants (100 μL) were collected for interferon β(IFN-β) analysis using the MSD assay noted above, and any residual supernatant was stored at −80° C.
compound,measurement,setting,value
"Nc1ccn([C@H]2C[C@H](O)[C@](CO)(CCl)O2)c(=O)n1 [Compound 2, 4-amino-1-((2R,4S,5R)-5-(chloromethyl)-4-hydroxy-5-(hydroxymethyl)tetrahydrofuran-2-yl)pyrimidin-2(1H)-one]",change in interferon-stimulated gene (ISG) response (FIG. 2A),"[1]; compound p.o. 0.6, 2.0, 6.0 mg/kg daily Day 0 to Day 4, IFIT2 v. GAPDH",change in ISG response
same,change in interferon-stimulated gene (ISG) response (FIGS. 2B and 2C),"[1]; compound p.o. 1, 10, 100 mg/kg daily, kidneys, IRF7 and MX1",change in the ISG response
same,IFN-β level,[2],inhibition of IFN-0
